From the supplement of paper PMC10307832

What was measured:
Assay in all cases: relative viability (nuclei count vs DMSO), 5 days (fraction); higher = more cells survive
[1] = compound: C[C@@]1(C(=O)Nc2ccc(F)nc2)CCCN1c1nc(Nc2cc(C3CC3)n[nH]2)c2cccn2n1 + Cc1cc(Nc2cc(N3CCN(C)CC3)nc(Sc3ccc(NC(=O)C4CC4)cc3)n2)n[nH]1 [Tozasertib] (partner 0.1 µM)
In short: (§1)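 Nuclei were stained with Hoechst during a one-step fixation (final 0.05% Triton X-100, 1% formaldehyde, 1 ug/ml Hoechst) carried out 5 days after dosing, then counted on 4× images. The cells, lung cancer lines in 1536-well plates, had been dosed by pin tool the day after seeding with one drug alone or a fixed anchor-drug dose plus five library-drug doses (not always all listed) in √10 steps. Relative viability is the nuclei count in treated wells divided by that in vehicle wells, and each value is the median of duplicate plates.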

[2] = compound: C[C@@]1(C(=O)Nc2ccc(F)nc2)CCCN1c1nc(Nc2cc(C3CC3)n[nH]2)c2cccn2n1 + Nc1ncn([C@H]2C[C@H](O)[C@@H](CO)O2)c(=O)n1 [Decitabine] (partner 2 µM)
In short: as §1

[3] = compound: CC1(C)CNc2cc(NC(=O)c3cccnc3NCc3ccncc3)ccc21 [Motesanib] + CS(=O)(=O)CCNCc1ccc(-c2ccc3ncnc(Nc4ccc(OCc5cccc(F)c5)c(Cl)c4)c3c2)o1 [Lapatinib] (partner 2 µM)
In short: as §1

[4] = compound: CC1(C)CNc2cc(NC(=O)c3cccnc3NCc3ccncc3)ccc21 [Motesanib] + O=C(c1cc(Cc2n[nH]c(=O)c3ccccc23)ccc1F)N1CCN(C(=O)C2CC2)CC1 [Olaparib] (partner 8 µM)
In short: as §1

Row | Cell Line | relative viability ([1]; first compound 0.04 µM) | relative viability ([1]; first compound 0.1265 µM) | relative viability ([1]; first compound 1.265 µM) | relative viability ([2]; first compound 0.04 µM) | relative viability ([2]; first compound 0.1265 µM) | relative viability ([2]; first compound 0.4 µM) | relative viability ([2]; first compound 1.265 µM) | relative viability ([3]; first compound 0.01 µM) | relative viability ([3]; first compound 0.03162 µM) | relative viability ([3]; first compound 0.1 µM) | relative viability ([3]; first compound 0.3162 µM) | relative viability ([3]; first compound 1 µM) | relative viability ([4]; first compound 0.01 µM) | relative viability ([4]; first compound 0.03162 µM) | relative viability ([4]; first compound 0.1 µM) | relative viability ([4]; first compound 0.3162 µM) | relative viability ([4]; first compound 1 µM) | relative viability ([1]; first compound 0.4 µM)
1 | NCI-H1793 | 0.631 | 0.283 | 0.789 | 0.362 | 0.428 | 0.429 | 0.429 | 0.858 | 0.636 | 0.64 | 0.701 | 0.773 | 0.798 | 0.827 | 0.761 | 0.904 | 0.844 | –
2 | NCI-H1915 | 0.473 | 0.418 | 0.415 | 0.266 | 0.278 | 0.251 | 0.258 | 0.99 | 0.929 | 0.866 | 0.939 | 1.01 | 0.246 | 0.262 | 0.258 | 0.277 | 0.286 | 0.407
3 | NCI-H1944 | 0.251 | 0.239 | 0.245 | 0.372 | 0.377 | 0.376 | 0.386 | 0.944 | 0.831 | 0.842 | 0.836 | 0.859 | 0.444 | 0.4 | 0.432 | 0.46 | 0.428 | 0.203
4 | NCI-H1975 | 0.682 | 0.646 | 0.316 | 0.38 | 0.388 | 0.319 | 0.303 | 0.873 | 0.815 | 0.89 | 0.907 | 0.993 | 0.756 | 0.667 | 0.761 | 0.682 | 0.781 | 0.513
5 | NCI-H1993 | 0.556 | 0.502 | 0.549 | 0.532 | 0.522 | 0.486 | 0.458 | 0.884 | 0.893 | 0.801 | 0.867 | 0.638 | 1.03 | 0.94 | 1.03 | 1.06 | 1.08 | 0.55
6 | NCI-H2009 | 0.779 | 0.693 | 0.519 | 0.401 | 0.369 | 0.406 | 0.313 | 1.08 | 0.927 | 0.962 | 1.36 | 0.898 | 0.717 | 0.667 | 0.693 | 0.646 | 0.682 | 0.598
7 | NCI-H2023 | 0.337 | 0.31 | 0.118 | 0.234 | 0.228 | 0.177 | 0.139 | 0.939 | 0.778 | 0.54 | 0.988 | 0.897 | 0.469 | 0.409 | 0.515 | 0.496 | 0.425 | 0.174
8 | NCI-H2085 | 0.892 | 0.795 | 0.92 | 0.51 | 0.499 | 0.538 | 0.528 | 0.77 | 0.779 | 0.798 | 0.772 | 0.779 | 0.756 | 0.777 | 0.764 | 0.745 | 0.843 | 0.664
9 | NCI-H2087 | 0.231 | 0.28 | 0.209 | 0.237 | 0.191 | 0.258 | 0.16 | 1.23 | 0.923 | 1.23 | 1.38 | 1.1 | – | – | 0.663 | 0.703 | 0.747 | 0.159
10 | NCI-H2126 | 0.677 | 0.366 | 0.337 | 0.539 | 0.389 | 0.36 | 0.471 | 0.811 | 0.768 | 0.718 | 0.789 | 0.728 | 0.892 | 0.885 | 0.899 | 0.892 | 1 | 0.441
11 | NCI-H2170 | 0.671 | 0.791 | 0.559 | 0.43 | 0.489 | 0.442 | 0.468 | 0.243 | 0.282 | 0.228 | 0.262 | 0.293 | 0.694 | 0.656 | 0.599 | 0.61 | 0.684 | 0.636
12 | NCI-H2347 | 0.606 | 0.581 | 0.502 | 0.571 | 0.574 | 0.487 | 0.599 | 0.961 | 0.776 | 0.986 | 1.01 | 0.838 | 0.536 | 0.507 | 0.559 | 0.537 | 0.596 | 0.512
13 | NCI-H2405 | 0.659 | 0.65 | 0.409 | 0.68 | 0.487 | 0.488 | 0.576 | – | 1.05 | 1.09 | 1.16 | 1.12 | 0.741 | 0.808 | 0.859 | 0.837 | 0.832 | 0.5
14 | NCI-H3122 | 0.373 | 0.541 | 0.306 | 0.361 | 0.337 | 0.349 | 0.386 | 0.991 | 1.03 | 0.965 | 1.03 | 1.02 | 0.581 | 0.644 | 0.644 | 0.632 | 0.683 | 0.219
15 | PC-3 [JPC-3] | 0.915 | 0.882 | 0.887 | 0.786 | 0.608 | 0.804 | 0.766 | 0.465 | 0.459 | 0.451 | 0.42 | 0.465 | 1.14 | 1.18 | 1.2 | 1.18 | 1.16 | 0.843
16 | PC-14 | 0.572 | 0.587 | 0.464 | 0.209 | 0.27 | 0.177 | 0.172 | 0.318 | 0.264 | 0.336 | 0.334 | 0.339 | 0.224 | 0.32 | 0.322 | 0.258 | 0.204 | 0.515
17 | RERF-LC-KJ | 0.544 | 0.506 | 0.236 | 0.662 | 0.629 | 0.468 | 0.467 | 0.895 | 0.876 | 0.958 | 0.827 | 0.853 | 0.981 | 0.991 | 0.896 | 1.08 | 1.04 | 0.33
18 | SK-LU-1 | 0.282 | 0.318 | 0.259 | 0.672 | 0.543 | 0.489 | 0.524 | 0.844 | 1.02 | 0.894 | 0.961 | 1.01 | 0.445 | 0.504 | 0.425 | 0.505 | 0.373 | 0.233
